Experimental data: patent US10947254B2, “Methods for treating ulcerative colitis using 3-((1R,3s,5S)-3-((7-((5-methyl-1H-pyrazol-3-yl)amino)-1,6-naphthyridin-5-yl)amino)-8-azabicyclo[3.2.1]octan-8-yl)propanenitrile” (priority 2015, dated 2021)

Assays:
[1] = test system: IL-13 induced STAT6 phosphorylation in BEAS-2B human lung epithelial cells; settings: BEAS-2B cells
[2] = test system: IL-4 induced STAT6 phosphorylation in THP-1 human monocytic cells; settings: THP-1 cells

In the case of `CCC(CC#N)N1[C@@H]2CC[C@H]1C[C@H](Nc1nc(Nc3cc(C)[nH]n3)cc3ncccc13)C2` (some centres unmarked) [Example 1-22], the “BEAS2B pIC50” value [1] was “A (A represents a pEC50 value ≥7.5 (EC50≤32 nM))”.

`Cc1cc(Nc2cc3ncccc3c(N[C@@H]3C[C@H]4CC[C@@H](C3)N4CC(C)C#N)n2)n[nH]1` (some centres unmarked) [Example 1-23] was tested, and the “BEAS2B pIC50” value [1] was “A (A represents a pEC50 value ≥7.5 (EC50≤32 nM))” and the “THP-1 IL4 pIC50” value [2] was “A (A represents a pEC50 value ≥7.5 (EC50≤32 nM))”.

In the case of `Cc1cc(Nc2cc3ncccc3c(N[C@@H]3C[C@H]4CCC[C@@H](C3)N4CCC#N)n2)n[nH]1` [Example 1-31], the “BEAS2B pIC50” value [1] was “A (A represents a pEC50 value ≥7.5 (EC50≤32 nM))” and the “THP-1 IL4 pIC50” value [2] was “A (A represents a pEC50 value ≥7.5 (EC50≤32 nM))”.

In the case of `Cc1cc(Nc2cc3ncccc3c(N[C@@H]3C[C@H]4CCC[C@@H](C3)N4CCF)n2)n[nH]1` [Example 1-39], the “BEAS2B pIC50” value [1] was “A (A represents a pEC50 value ≥7.5 (EC50≤32 nM))” and the “THP-1 IL4 pIC50” value [2] was “A (A represents a pEC50 value ≥7.5 (EC50≤32 nM))”.

For `Cc1cc(Nc2cc3ncccc3c(N[C@@H]3C[C@H]4CCC[C@@H](C3)N4CCCF)n2)n[nH]1` [Example 1-40], the “BEAS2B pIC50” value [1] was “A (A represents a pEC50 value ≥7.5 (EC50≤32 nM))” and the “THP-1 IL4 pIC50” value [2] was “A (A represents a pEC50 value ≥7.5 (EC50≤32 nM))”.

With `Cc1cc(Nc2cc3ncccc3c(N[C@@H]3C[C@H]4CCC[C@@H](C3)N4CC(C)C)n2)n[nH]1` [Example 1-43] the “BEAS2B pIC50” value [1] was “A (A represents a pEC50 value ≥7.5 (EC50≤32 nM))” and the “THP-1 IL4 pIC50” value [2] was “A (A represents a pEC50 value ≥7.5 (EC50≤32 nM))”.

`Cc1cc(Nc2cc3ncccc3c(N[C@@H]3C[C@H]4CCC[C@@H](C3)N4CCC(F)(F)F)n2)n[nH]1` [Example 1-44] was tested, and the “BEAS2B pIC50” value [1] was “A (A represents a pEC50 value ≥7.5 (EC50≤32 nM))” and the “THP-1 IL4 pIC50” value [2] was “A (A represents a pEC50 value ≥7.5 (EC50≤32 nM))”.

`Cc1cc(Nc2cc3ncccc3c(N[C@@H]3C[C@H]4CCC[C@@H](C3)N4Cc3cccnc3)n2)n[nH]1` [Example 1-47] was tested, and the “BEAS2B pIC50” value [1] was “A (A represents a pEC50 value ≥7.5 (EC50≤32 nM))” and the “THP-1 IL4 pIC50” value [2] was “A (A represents a pEC50 value ≥7.5 (EC50≤32 nM))”.

In the case of `Cc1cc(Nc2cc3ncccc3c(N[C@@H]3C[C@H]4CCC[C@@H](C3)N4Cc3ccncc3C#N)n2)n[nH]1` [Example 1-56], the “BEAS2B pIC50” value [1] was “A (A represents a pEC50 value ≥7.5 (EC50≤32 nM))” and the “THP-1 IL4 pIC50” value [2] was “A (A represents a pEC50 value ≥7.5 (EC50≤32 nM))”.

In the case of `Cc1cc(Nc2cc3ncccc3c(N[C@@H]3C[C@H]4CC[C@@H](C3)N4C(=O)C(C)F)n2)n[nH]1` (some centres unmarked) [Example 2-3], the “BEAS2B pIC50” value [1] was “A (A represents a pEC50 value ≥7.5 (EC50≤32 nM))”.

For `Cc1cc(Nc2cc3ncccc3c(N[C@@H]3C[C@H]4CCC[C@@H](C3)N4C(=O)c3ccccc3)n2)n[nH]1` [Example 2-25], the “BEAS2B pIC50” value [1] was “A (A represents a pEC50 value ≥7.5 (EC50≤32 nM))” and the “THP-1 IL4 pIC50” value [2] was “A (A represents a pEC50 value ≥7.5 (EC50≤32 nM))”.

In the case of `Cc1cc(Nc2cc3ncccc3c(N[C@@H]3C[C@H]4CCC[C@@H](C3)N4C(=O)c3cncc(C#N)c3)n2)n[nH]1` [Example 2-26], the “BEAS2B pIC50” value [1] was “C (C represents a pEC50 value <6.7 (EC50>200 nM))”.

`Cc1cc(Nc2cc3ncccc3c(N[C@@H]3C[C@H]4CCC[C@@H](C3)N4C(=O)c3ccc(C#N)nc3)n2)n[nH]1` [Example 2-28] was tested, and the “BEAS2B pIC50” value [1] was “C (C represents a pEC50 value <6.7 (EC50>200 nM))”.

In the case of `Cc1cc(Nc2cc3ncccc3c(N[C@@H]3C[C@H]4CCC[C@@H](C3)N4C(=O)c3ccnc(C#N)c3)n2)n[nH]1` [Example 2-30], the “BEAS2B pIC50” value [1] was “C (C represents a pEC50 value <6.7 (EC50>200 nM))”.

`CCC1(S(=O)(=O)N2[C@@H]3CCC[C@H]2C[C@H](Nc2nc(Nc4cc(C)[nH]n4)cc4ncccc24)C3)CC1` [Example 4-20] was tested, and the “BEAS2B pIC50” value [1] was “A (A represents a pEC50 value ≥7.5 (EC50≤32 nM))” and the “THP-1 IL4 pIC50” value [2] was “A (A represents a pEC50 value ≥7.5 (EC50≤32 nM))”.

`Cc1cc(Nc2cc3ncccc3c(N[C@@H]3C[C@H]4CCC[C@@H](C3)N4S(=O)(=O)N3CCCC3)n2)n[nH]1` [Example 4-27] was tested, and the “BEAS2B pIC50” value [1] was “A (A represents a pEC50 value ≥7.5 (EC50≤32 nM))” and the “THP-1 IL4 pIC50” value [2] was “A (A represents a pEC50 value ≥7.5 (EC50≤32 nM))”.

For `Cc1cc(Nc2cc3ncccc3c(N[C@@H]3C[C@H]4CCC[C@@H](C3)N4S(=O)(=O)N3CCC3)n2)n[nH]1` [Example 4-29], the “BEAS2B pIC50” value [1] was “A (A represents a pEC50 value ≥7.5 (EC50≤32 nM))” and the “THP-1 IL4 pIC50” value [2] was “A (A represents a pEC50 value ≥7.5 (EC50≤32 nM))”.

In the case of `COc1ccc2c(N[C@@H]3C[C@H]4CC[C@@H](C3)N4CCCC#N)nc(Nc3cc(C)[nH]n3)cc2n1` [Example 5-2], the “BEAS2B pIC50” value [1] was “A (A represents a pEC50 value ≥7.5 (EC50≤32 nM))”.

For `COc1ccc2c(N[C@@H]3C[C@H]4CC[C@@H](C3)N4CC(C)C)nc(Nc3cc(C)[nH]n3)cc2n1` [Example 5-4], the “BEAS2B pIC50” value [1] was “A (A represents a pEC50 value ≥7.5 (EC50≤32 nM))” and the “THP-1 IL4 pIC50” value [2] was “A (A represents a pEC50 value ≥7.5 (EC50≤32 nM))”.

In the case of `C=CCOC(=O)N1[C@@H]2CC[C@H]1C[C@H](Nc1nc(Nc3cc(C)[nH]n3)cc3nc(OC)ccc13)C2` [Example 5-7], the “BEAS2B pIC50” value [1] was “A (A represents a pEC50 value ≥7.5 (EC50≤32 nM))”.

In the case of `COc1ccc2c(N[C@@H]3C[C@H]4CC[C@@H](C3)N4CCC#N)nc(Nc3cc(C)[nH]n3)cc2n1` [Example 5-8], the “BEAS2B pIC50” value [1] was “A (A represents a pEC50 value ≥7.5 (EC50≤32 nM))” and the “THP-1 IL4 pIC50” value [2] was “A (A represents a pEC50 value ≥7.5 (EC50≤32 nM))”.

With `C=CCOC(=O)N1[C@@H]2CC[C@H]1C[C@H](Nc1nc(Nc3cc(C)[nH]n3)cc3nc(CN4CCOCC4)ccc13)C2` [Example 5-17] the “BEAS2B pIC50” value [1] was “A (A represents a pEC50 value ≥7.5 (EC50≤32 nM))”.

In the case of `Cc1cc(Nc2cc3nc(CN4CCOCC4)ccc3c(N[C@@H]3C[C@H]4CCC[C@@H](C3)N4S(C)(=O)=O)n2)n[nH]1` [Example 5-22], the “BEAS2B pIC50” value [1] was “A (A represents a pEC50 value ≥7.5 (EC50≤32 nM))”.

`COc1cnc2cc(Nc3cc(C)[nH]n3)nc(N[C@@H]3C[C@H]4CC[C@@H](C3)N4C(=O)OCC(C)C)c2c1` [Example 6-25] was tested, and the “BEAS2B pIC50” value [1] was “A (A represents a pEC50 value ≥7.5 (EC50≤32 nM))”.

With `Cc1cc(Nc2cc3ncc(S(C)(=O)=O)cc3c(N[C@@H]3C[C@H]4CC[C@@H](C3)N4CCC#N)n2)n[nH]1` [Example 6-50] the “THP-1 IL4 pIC50” value [2] was “C (C represents a pEC50 value <6.7 (EC50>200 nM))”.

For `Cc1cc(Nc2cc3ncc(S(C)(=O)=O)cc3c(N[C@@H]3C[C@H]4CC[C@@H](C3)N4C(=O)CC#N)n2)n[nH]1` [Example 6-51], the “THP-1 IL4 pIC50” value [2] was “C (C represents a pEC50 value <6.7 (EC50>200 nM))”.

In the case of `Cc1cc(Nc2cc3ncc(S(C)(=O)=O)cc3c(N[C@@H]3C[C@H]4CC[C@@H](C3)N4CCF)n2)n[nH]1` [Example 6-54], the “THP-1 IL4 pIC50” value [2] was “C (C represents a pEC50 value <6.7 (EC50>200 nM))”.

With `Cc1cc(Nc2cc3ncc(S(C)(=O)=O)cc3c(N[C@@H]3C[C@H]4CC[C@@H](C3)N4CCCF)n2)n[nH]1` [Example 6-55] the “THP-1 IL4 pIC50” value [2] was “C (C represents a pEC50 value <6.7 (EC50>200 nM))”.

In the case of `Cc1cc(Nc2cc3ncc(S(C)(=O)=O)cc3c(N[C@@H]3C[C@H]4CC[C@@H](C3)N4[C@@H]3CCOC3=O)n2)n[nH]1` [Example 6-57], the “THP-1 IL4 pIC50” value [2] was “C (C represents a pEC50 value <6.7 (EC50>200 nM))”.

In the case of `Cc1cc(Nc2cc3ncc(S(C)(=O)=O)cc3c(N[C@@H]3C[C@H]4CC[C@@H](C3)N4[C@@H]3CCOC3=O)n2)n[nH]1` [Example 6-58], the “THP-1 IL4 pIC50” value [2] was “C (C represents a pEC50 value <6.7 (EC50>200 nM))”.

For `Cc1cc(Nc2cc3ncc(S(C)(=O)=O)cc3c(N[C@@H]3C[C@H]4CC[C@@H](C3)N4Cc3ccncc3)n2)n[nH]1` [Example 6-59], the “BEAS2B pIC50” value [1] was “C (C represents a pEC50 value <6.7 (EC50>200 nM))”.

With `COc1ccnc2cc(Nc3cc(C)[nH]n3)nc(N[C@@H]3C[C@H]4CC[C@@H](C3)N4C(=O)CN(C)C)c12` [Example 7-3] the “THP-1 IL4 pIC50” value [2] was “C (C represents a pEC50 value <6.7 (EC50>200 nM))”.

`COc1ccnc2cc(Nc3cc(C)[nH]n3)nc(N[C@@H]3C[C@H]4CC[C@@H](C3)N4CCC#N)c12` [Example 7-6] was tested, and the “THP-1 IL4 pIC50” value [2] was “A (A represents a pEC50 value ≥7.5 (EC50≤32 nM))”.

With `CCS(=O)(=O)N1[C@@H]2CC[C@H]1C[C@H](Nc1nc(Nc3cc(C)[nH]n3)c(F)c3ncccc13)C2` [Example 8-3] the “THP-1 IL4 pIC50” value [2] was “A (A represents a pEC50 value ≥7.5 (EC50≤32 nM))”.

In the case of `Cc1cc(Nc2nc(N[C@@H]3C[C@H]4CC[C@@H](C3)N4S(=O)(=O)c3cncc(F)c3)c3cccnc3c2F)n[nH]1` [Example 8-5], the “BEAS2B pIC50” value [1] was “A (A represents a pEC50 value ≥7.5 (EC50≤32 nM))”.

For `Cc1cc(Nc2nc(N[C@@H]3C[C@H]4CC[C@@H](C3)N4C(=O)CN(C)C)c3cccnc3c2F)n[nH]1` [Example 8-7], the “THP-1 IL4 pIC50” value [2] was “C (C represents a pEC50 value <6.7 (EC50>200 nM))”.

In the case of `Cc1cc(Nc2nc(NC3CC4CCC(C3)N4C(=O)C(C)O)c3cccnc3c2F)n[nH]1` (centres unmarked) [Example 8-8], the “THP-1 IL4 pIC50” value [2] was “C (C represents a pEC50 value <6.7 (EC50>200 nM))”.

With `Cc1cc(Nc2nc(N[C@@H]3C[C@H]4CCC[C@@H](C3)N4S(=O)(=O)c3ccccc3)c3cccnc3c2F)n[nH]1` [Example 8-11] the “BEAS2B pIC50” value [1] was “A (A represents a pEC50 value ≥7.5 (EC50≤32 nM))”.

With `Cc1cc(Nc2nc(N[C@@H]3C[C@H]4CCC[C@@H](C3)N4S(=O)(=O)c3cncc(F)c3)c3cccnc3c2F)n[nH]1` [Example 8-13] the “BEAS2B pIC50” value [1] was “A (A represents a pEC50 value ≥7.5 (EC50≤32 nM))”.

`Cc1cc(Nc2nc(N[C@@H]3C[C@H]4CCC[C@@H](C3)N4C(=O)CN(C)C)c3cccnc3c2F)n[nH]1` [Example 8-15] was tested, and the “THP-1 IL4 pIC50” value [2] was “C (C represents a pEC50 value <6.7 (EC50>200 nM))”.

`Cc1cnc2c(F)c(Nc3cc(C)[nH]n3)nc(N[C@@H]3C[C@H]4CC[C@@H](C3)N4S(=O)(=O)N3CC(C#N)C3)c2c1` [Example 8-19] was tested, and the “THP-1 IL4 pIC50” value [2] was “C (C represents a pEC50 value <6.7 (EC50>200 nM))”.

`Cc1cnc2c(F)c(Nc3cc(C)[nH]n3)nc(N[C@@H]3C[C@H]4CC[C@@H](C3)N4S(=O)(=O)c3cccnc3)c2c1` [Example 8-20] was tested, and the “THP-1 IL4 pIC50” value [2] was “C (C represents a pEC50 value <6.7 (EC50>200 nM))”.
